Measured values from article PMC5896380, “Selective imaging of cathepsin L in breast cancer by fluorescent activity-based probes” (Chemical Science, 2018).
Like-named read-outs stand apart in the source and are kept apart here. Non-standard residues stand in square brackets, D forms with d. *: point of attachment. Phe(F5) = N[C@@H](Cc1c(F)c(F)c(F)c(F)c1F)C(=O)O; Phe(3-Cl) = N[C@@H](Cc1cccc(Cl)c1)C(=O)O; ACC = NC(=O)Cc1cc(=O)oc2cc(N*)ccc12; hArg = N=C(N)NCCCC[C@H](N)C(=O)O; ClZ = O=C(OCc1ccccc1Cl)*; Orn = NCCC[C@H](N)C(=O)O; Dab = NCC[C@H](N)C(=O)O; Dap = NC[C@H](N)C(=O)O; Mob = COc1ccc(C*)cc1; Meb = Cc1ccc(C*)cc1; OBn = c1ccc(CO*)cc1; Bn = c1ccc(C*)cc1

Legend:
Format in all cases: biochemical
[1] = biological target: T1, cathepsin L (Homo sapiens, UniProt P07711); assay: Kinetic parameters of ACC substrates with cathepsin L; settings: for hydrolysis by cathepsin L relative to Ac-His-Arg-Phe-Arg-ACC substrate: kcat/KM compared with reference substrate; for kcat/KM Cath-L: Fig. 5B, triplicate
T1 construct: made in house
Method: (§1) All kinetic experiments were performed using fMax (Molecular Devices) and CLARIOStar (BMG LABTECH) spectrofluorimeters operating in kinetic mode using 96-well plates. ACC-labeled substrates were screened using 355 nm and 460 nm wavelengths (excitation and emission, respectively). […] The buffer was prepared at room temperature and the enzyme kinetic studies were performed at 37 °C.
(§2) Classic substrate velocity plots were analyzed according to Michaelis–Menten kinetics and a detailed protocol for the determination of kinetic parameters for ACC-tagged substrates is found elsewhere.[56] […] Experiments were repeated at least three times and results are presented as an average. The SDs were below 15%.

[2] = biological target: T2, cathepsin S (Homo sapiens, UniProt P25774); assay: Kinetic parameters of ACC substrates with cathepsin S; settings: for kcat/KM Cath-S: Fig. 5B, pH 5.5, 37 °C, cathepsin S 5–20 nM, triplicate, SD below 15%
T2 construct: made in house
Method: as §1, §2

[3] = biological target: T3, cathepsin K (Homo sapiens, UniProt P43235); assay: Kinetic parameters of ACC substrates with cathepsin K; settings: for kcat/KM Cath-K: Fig. 5B, pH 5.5, 37 °C, cathepsin K 5–20 nM, triplicate, SD below 15%
T3 construct: made in house
T3 sequence (P43235 115-329): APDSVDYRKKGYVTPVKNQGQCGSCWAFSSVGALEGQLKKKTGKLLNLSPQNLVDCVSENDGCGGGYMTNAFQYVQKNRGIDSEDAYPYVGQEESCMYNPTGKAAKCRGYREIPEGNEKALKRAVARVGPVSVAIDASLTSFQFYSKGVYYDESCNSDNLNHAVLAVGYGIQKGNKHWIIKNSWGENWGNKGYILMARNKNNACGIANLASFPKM
Method: as §1, §2

[4] = biological target: T4, cathepsin B (Homo sapiens, UniProt P07858); assay: Kinetic parameters of ACC substrates with cathepsin B; settings: for kcat/KM Cath-B: Fig. 5B, pH 5.5, 37 °C, cathepsin B 4–15 nM, triplicate, SD below 15%
T4 construct: made in house
Method: as §1, §2

[5] = biological target: T5, cathepsin V (Homo sapiens, UniProt O60911); assay: Kinetic parameters of ACC substrates with cathepsin V; settings: for kcat/KM Cath-V: Fig. 5B, pH 5.5, 37 °C, cathepsin V 10–20 nM, triplicate, SD below 15%
T5 construct: made in house
Method: as §1, §2

[6] = Fig. 4B, ACC substrates, 100 mM sodium acetate, 100 mM NaCl, 10 mM DTT, 1 mM EDTA, pH 5.5, 37 °C, cathepsin L 0.1–0.5 nM, average of at least three, SD below 15%
[7] = Table S2, cathepsin L, four independent experiments, S.D. below 15%
[8] = Table S2, cathepsin L, four independent experiments, S.D. below 15%, read-out: KM
[9] = pH 5.5, 37 °C, cathepsin L 0.1–0.5 nM, SD below 15%
[10] = Table S7, four independent experiments, S.D. below 15%

T5 sequence (O60911 114-334): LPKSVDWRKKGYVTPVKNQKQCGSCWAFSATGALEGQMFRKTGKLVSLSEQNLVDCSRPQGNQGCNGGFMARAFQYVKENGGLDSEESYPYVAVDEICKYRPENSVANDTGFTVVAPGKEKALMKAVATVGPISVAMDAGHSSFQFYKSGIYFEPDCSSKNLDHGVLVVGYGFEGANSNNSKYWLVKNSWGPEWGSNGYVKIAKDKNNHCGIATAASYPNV
T1 sequence (P07711 114-333): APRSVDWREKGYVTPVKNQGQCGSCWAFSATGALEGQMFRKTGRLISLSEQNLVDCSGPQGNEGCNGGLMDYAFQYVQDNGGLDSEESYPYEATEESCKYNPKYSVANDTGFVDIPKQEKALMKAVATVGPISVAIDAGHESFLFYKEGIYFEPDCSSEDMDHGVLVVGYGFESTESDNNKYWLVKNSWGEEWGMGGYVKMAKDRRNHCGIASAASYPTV
T2 sequence (P25774 115-331): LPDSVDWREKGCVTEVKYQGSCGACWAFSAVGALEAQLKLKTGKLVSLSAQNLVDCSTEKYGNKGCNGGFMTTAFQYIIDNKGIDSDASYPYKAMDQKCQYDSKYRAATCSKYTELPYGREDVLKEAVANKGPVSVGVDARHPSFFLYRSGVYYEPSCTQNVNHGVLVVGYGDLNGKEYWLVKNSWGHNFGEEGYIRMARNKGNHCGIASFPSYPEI

Ac-Dap-Orn-Phe(3-Cl)-Nle(OBzl)-ACC
kcat/KM [1, 6]: 47,400,000 M^-1s^-1
kcat [1, 7]: 124 s⁻¹
kcat/KM [1, 7]: 47,400,000 M-1s-1
Km [1, 8]: 2.63 µM
hydrolysis by cathepsin L relative to Ac-His-Arg-Phe-Arg-ACC substrate [1]: ~4 times

Ac-H[dK][Phe(F5)]R-{ACC} (SMILES CC(=O)N[C@@H](Cc1c[nH]cn1)C(=O)N[C@H](CCCCN)C(=O)N[C@@H](Cc1c(F)c(F)c(F)c(F)c1F)C(=O)N[C@@H](CCCNC(=N)N)C(=O)Nc1ccc2c(CC(N)=O)cc(=O)oc2c1)
kcat/KM Cath-S [2]: < 10 M⁻¹ s⁻¹
kcat/KM Cath-K [3]: 29 M⁻¹ s⁻¹
kcat/KM Cath-L [1, 9]: 715,000 M^-1s^-1
kcat/KM Cath-B [4]: 175 M⁻¹ s⁻¹
kcat/KM Cath-V [5]: 1,010 M^-1s^-1

Ac-H[dL][Phe(F5)]R-{ACC} (SMILES CC(=O)N[C@@H](Cc1c[nH]cn1)C(=O)N[C@H](CC(C)C)C(=O)N[C@@H](Cc1c(F)c(F)c(F)c(F)c1F)C(=O)N[C@@H](CCCNC(=N)N)C(=O)Nc1ccc2c(CC(N)=O)cc(=O)oc2c1)
kcat/KM Cath-S [2]: < 10 M⁻¹ s⁻¹
kcat/KM Cath-K [3]: < 10 M⁻¹ s⁻¹
kcat/KM Cath-L [1, 9]: 405,900 M^-1s^-1
kcat/KM Cath-B [4]: 135 M⁻¹ s⁻¹
kcat/KM Cath-V [5]: 353 M⁻¹ s⁻¹

Ac-H[dQ][Phe(F5)]R-{ACC} (SMILES CC(=O)N[C@@H](Cc1c[nH]cn1)C(=O)N[C@H](CCC(N)=O)C(=O)N[C@@H](Cc1c(F)c(F)c(F)c(F)c1F)C(=O)N[C@@H](CCCNC(=N)N)C(=O)Nc1ccc2c(CC(N)=O)cc(=O)oc2c1)
kcat/KM Cath-S [2]: < 10 M⁻¹ s⁻¹
kcat/KM Cath-K [3]: < 10 M⁻¹ s⁻¹
kcat/KM Cath-L [1, 9]: 336,900 M^-1s^-1
kcat/KM Cath-B [4]: 130 M⁻¹ s⁻¹
kcat/KM Cath-V [5]: 1,070 M^-1s^-1

Ac-H[dT][Phe(F5)]R-{ACC} (SMILES CC(=O)N[C@@H](Cc1c[nH]cn1)C(=O)N[C@@H](C(=O)N[C@@H](Cc1c(F)c(F)c(F)c(F)c1F)C(=O)N[C@@H](CCCNC(=N)N)C(=O)Nc1ccc2c(CC(N)=O)cc(=O)oc2c1)[C@H](C)O)
kcat/KM Cath-S [2]: < 10 M⁻¹ s⁻¹
kcat/KM Cat S [2, 10]: < 10 M⁻¹ s⁻¹
kcat/KM Cath-K [3]: < 10 M⁻¹ s⁻¹
kcat/KM Cat K [3, 10]: < 10 M⁻¹ s⁻¹
kcat/KM Cath-L [1, 9]: 729,200 M^-1s^-1
kcat Cat L [1, 10]: 38.6 s⁻¹
Km ([1]; Table S7, four independent experiments, S.D. below 15%, read-out: KM Cat L): 53.1 µM
kcat/KM Cath-B [4]: 94 M⁻¹ s⁻¹
kcat Cat B [4, 10]: 0.00673 s⁻¹
kcat/KM Cat B [4, 10]: 94 M⁻¹ s⁻¹
Km ([4]; Table S7, four independent experiments, S.D. below 15%, read-out: KM Cat B): 71.5 µM
kcat/KM Cath-V [5]: 286 M⁻¹ s⁻¹
kcat Cat V [5, 10]: 0.0178 s⁻¹
kcat/KM Cat V [5, 10]: 286 M⁻¹ s⁻¹
Km ([5]; Table S7, four independent experiments, S.D. below 15%, read-out: KM Cat V): 61.4 µM

Ac-H[dV]T(Bn)R-{ACC} (SMILES CC(=O)N[C@@H](Cc1c[nH]cn1)C(=O)N[C@@H](C(=O)N[C@H](C(=O)N[C@@H](CCCNC(=N)N)C(=O)Nc1ccc2c(CC(N)=O)cc(=O)oc2c1)[C@@H](C)OCc1ccccc1)C(C)C)
kcat/KM Cath-S [2]: < 10 M⁻¹ s⁻¹
kcat/KM Cath-K [3]: 130 M⁻¹ s⁻¹
kcat/KM Cath-L [1, 9]: 158,520 M^-1s^-1
kcat/KM Cath-B [4]: 480 M⁻¹ s⁻¹
kcat/KM Cath-V [5]: 424 M⁻¹ s⁻¹

Ac-[Dab]R[Phe(3-Cl)]R-{ACC} (SMILES CC(=O)N[C@@H](CCN)C(=O)N[C@@H](CCCNC(=N)N)C(=O)N[C@@H](Cc1cccc(Cl)c1)C(=O)N[C@@H](CCCNC(=N)N)C(=O)Nc1ccc2c(CC(N)=O)cc(=O)oc2c1)
kcat/KM [1, 6]: 31,960,000 M^-1s^-1

Ac-[Dab][Orn][Phe(3-Cl)]R-{ACC} (SMILES CC(=O)N[C@@H](CCN)C(=O)N[C@@H](CCCN)C(=O)N[C@@H](Cc1cccc(Cl)c1)C(=O)N[C@@H](CCCNC(=N)N)C(=O)Nc1ccc2c(CC(N)=O)cc(=O)oc2c1)
kcat/KM [1, 6]: 35,070,000 M^-1s^-1

Ac-[Dap]R[Phe(3-Cl)]R-{ACC} (SMILES CC(=O)N[C@@H](CN)C(=O)N[C@@H](CCCNC(=N)N)C(=O)N[C@@H](Cc1cccc(Cl)c1)C(=O)N[C@@H](CCCNC(=N)N)C(=O)Nc1ccc2c(CC(N)=O)cc(=O)oc2c1)
kcat/KM [1, 6]: 25,400,000 M^-1s^-1

Ac-[Dap][Orn][Phe(3-Cl)]C(Bn)-{ACC} (SMILES CC(=O)N[C@@H](CN)C(=O)N[C@@H](CCCN)C(=O)N[C@@H](Cc1cccc(Cl)c1)C(=O)N[C@@H](CSCc1ccccc1)C(=O)Nc1ccc2c(CC(N)=O)cc(=O)oc2c1)
kcat/KM [1, 6]: 45,420,000 M^-1s^-1
kcat [1, 7]: 191 s⁻¹
kcat/KM [1, 7]: 45,420,000 M-1s-1
Km [1, 8]: 4.28 µM

Ac-[Dap][Orn][Phe(3-Cl)]C(Meb)-{ACC} (SMILES CC(=O)N[C@@H](CN)C(=O)N[C@@H](CCCN)C(=O)N[C@@H](Cc1cccc(Cl)c1)C(=O)N[C@@H](CSCc1ccc(C)cc1)C(=O)Nc1ccc2c(CC(N)=O)cc(=O)oc2c1)
kcat/KM [1, 6]: 41,660,000 M^-1s^-1
kcat [1, 7]: 207 s⁻¹
Km [1, 8]: 4.99 µM

Ac-[Dap][Orn][Phe(3-Cl)]C(Mob)-{ACC} (SMILES COc1ccc(CSC[C@H](NC(=O)[C@H](Cc2cccc(Cl)c2)NC(=O)[C@H](CCCN)NC(=O)[C@H](CN)NC(C)=O)C(=O)Nc2ccc3c(CC(N)=O)cc(=O)oc3c2)cc1)
kcat/KM [1, 6]: 48,350,000 M^-1s^-1
kcat [1, 7]: 193 s⁻¹
Km [1, 8]: 4.15 µM
hydrolysis by cathepsin L relative to Ac-His-Arg-Phe-Arg-ACC substrate [1]: ~4 times

Ac-[Dap][Orn][Phe(3-Cl)]E(OBn)-{ACC} (SMILES CC(=O)N[C@@H](CN)C(=O)N[C@@H](CCCN)C(=O)N[C@@H](Cc1cccc(Cl)c1)C(=O)N[C@@H](CCC(=O)OCc1ccccc1)C(=O)Nc1ccc2c(CC(N)=O)cc(=O)oc2c1)
kcat/KM [1, 6]: 34,270,000 M^-1s^-1
kcat [1, 7]: 188 s⁻¹
kcat/KM [1, 7]: 34,270,000 M-1s-1
Km [1, 8]: 5.67 µM

Ac-[Dap][Orn][Phe(3-Cl)]K(ClZ)-{ACC} (SMILES CC(=O)N[C@@H](CN)C(=O)N[C@@H](CCCN)C(=O)N[C@@H](Cc1cccc(Cl)c1)C(=O)N[C@@H](CCCCNC(=O)OCc1ccccc1Cl)C(=O)Nc1ccc2c(CC(N)=O)cc(=O)oc2c1)
kcat/KM [1, 6]: 29,280,000 M^-1s^-1
kcat [1, 7]: 86.7 s⁻¹
kcat/KM [1, 7]: 29,280,000 M-1s-1
Km [1, 8]: 2.98 µM

Ac-[Dap][Orn][Phe(3-Cl)]K-{ACC} (SMILES CC(=O)N[C@@H](CN)C(=O)N[C@@H](CCCN)C(=O)N[C@@H](Cc1cccc(Cl)c1)C(=O)N[C@@H](CCCCN)C(=O)Nc1ccc2c(CC(N)=O)cc(=O)oc2c1)
kcat/KM [1, 6]: 19,810,000 M^-1s^-1
kcat [1, 7]: 141 s⁻¹
kcat/KM [1, 7]: 19,810,000 M-1s-1
Km [1, 8]: 7.11 µM

Ac-[Dap][Orn][Phe(3-Cl)]L-{ACC} (SMILES CC(=O)N[C@@H](CN)C(=O)N[C@@H](CCCN)C(=O)N[C@@H](Cc1cccc(Cl)c1)C(=O)N[C@@H](CC(C)C)C(=O)Nc1ccc2c(CC(N)=O)cc(=O)oc2c1)
kcat/KM [1, 6]: 11,290,000 M^-1s^-1
kcat [1, 7]: 41.8 s⁻¹
kcat/KM [1, 7]: 11,290,000 M-1s-1
Km [1, 8]: 3.7 µM

Ac-[Dap][Orn][Phe(3-Cl)]R-{ACC} (SMILES CC(=O)N[C@@H](CN)C(=O)N[C@@H](CCCN)C(=O)N[C@@H](Cc1cccc(Cl)c1)C(=O)N[C@@H](CCCNC(=N)N)C(=O)Nc1ccc2c(CC(N)=O)cc(=O)oc2c1)
kcat/KM [1, 6]: 36,310,000 M^-1s^-1
kcat [1, 7]: 195 s⁻¹
kcat/KM [1, 7]: 36,310,000 M-1s-1
Km [1, 8]: 5.38 µM

Ac-[Dap][Orn][Phe(3-Cl)][hArg]-{ACC} (SMILES CC(=O)N[C@@H](CN)C(=O)N[C@@H](CCCN)C(=O)N[C@@H](Cc1cccc(Cl)c1)C(=O)N[C@@H](CCCCNC(=N)N)C(=O)Nc1ccc2c(CC(N)=O)cc(=O)oc2c1)
kcat/KM [1, 6]: 30,500,000 M^-1s^-1
kcat [1, 7]: 123 s⁻¹
kcat/KM [1, 7]: 30,500,000 M-1s-1
Km [1, 8]: 4.21 µM
